The values that follow come from patent US8288552B2, “Dihydropyridone amidesas P2X7 modulators” (Roche Palo Alto LLC, priority 2008, dated 2012).

The structures appear in SMILES notation.

In the experiment the target is T1, P2X7 (UniProt Q99572).
T1 sequence (Q99572 1-595): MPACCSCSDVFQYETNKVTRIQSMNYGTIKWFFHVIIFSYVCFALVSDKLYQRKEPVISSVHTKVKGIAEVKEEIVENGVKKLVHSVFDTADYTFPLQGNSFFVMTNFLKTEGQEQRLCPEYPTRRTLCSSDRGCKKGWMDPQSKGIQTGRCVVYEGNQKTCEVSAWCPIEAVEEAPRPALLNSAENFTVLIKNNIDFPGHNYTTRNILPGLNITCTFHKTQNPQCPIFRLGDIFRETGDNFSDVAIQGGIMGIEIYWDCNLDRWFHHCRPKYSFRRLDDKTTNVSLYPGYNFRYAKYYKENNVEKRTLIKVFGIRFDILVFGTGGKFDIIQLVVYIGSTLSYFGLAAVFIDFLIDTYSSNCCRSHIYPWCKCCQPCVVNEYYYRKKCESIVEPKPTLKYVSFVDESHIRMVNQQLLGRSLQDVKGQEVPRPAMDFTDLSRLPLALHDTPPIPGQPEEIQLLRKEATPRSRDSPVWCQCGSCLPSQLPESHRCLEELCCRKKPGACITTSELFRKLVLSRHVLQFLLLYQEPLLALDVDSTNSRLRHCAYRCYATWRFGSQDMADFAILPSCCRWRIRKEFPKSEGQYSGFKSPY
Kind of experiment: P2X7 pKi of Table 1. The experiment is classed as cell-based. The method, boiled down: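 Human P2X7 in 1321N1 cells and rat P2X7 in HEK293 cells, loaded with fluo-3 for 1 hr at 37° C, then exposed to antagonist for 20 min at room temperature. BzATP agonist was used at 100 μM final (human) or 5 μM final (rat), with fluorescence read for 5 min. The response was normalized to maximal fluorescence evoked by 5 μM ionomycin.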
As usually defined, the pKi is the Ki on a negative log10 scale, so that one unit is a factor of ten. Regarding `COc1cc(NC(=O)C2=CNC(=O)CC2c2cccc(F)c2)c(Br)cc1Cl` (centres unmarked) [Compound 9, 4-(3-Fluoro-phenyl)-6-oxo-1,4,5,6-tetrahydro-pyridine-3-carboxylic acid(2-bromo-4-chloro-5-methoxy-phenyl)-amide], the negative logarithm of the Ki (pKi) is reported as 6.766.
`COc1cc(C)c(NC(=O)C2=CN(CCO)C(=O)CC2c2ccc(F)cc2)cc1OC` (centres unmarked) [Compound 79, 4-(4-Fluoro-phenyl)-1-(2-hydroxy-ethyl)-6-oxo-1,4,5,6-tetrahydro-pyridine-3-carboxylic acid(4,5-dimethoxy-2-methyl-phenyl)-amide]: the pKi is given as 7.42.
For the molecule `COc1cc(Br)c(NC(=O)C2=CNC(=O)C[C@H]2c2cccc(F)c2)cc1OC` [Compound 30, (S)-4-(3-Fluoro-phenyl)-6-oxo-1,4,5,6-tetrahydro-pyridine-3-carboxylic acid(2-bromo-4,5-dimethoxy-phenyl)-amide], the negative-log Ki (pKi) is reported as 8.045.
For the molecule `Cc1cccc(NC(=O)C2=CNC(=O)C[C@@H]2c2ccc(F)cc2)c1C` [Compound 57, (R)-4-(4-Fluoro-phenyl)-6-oxo-1,4,5,6-tetrahydro-pyridine-3-carboxylic acid (2,3-dimethyl-phenyl)-amide], the pKi is recorded as 7.405.
In turn, `COc1ccc(NC(=O)C2=CNC(=O)C[C@H]2c2ccc(F)cc2)cc1OC` [Compound 133, (S)-4-(4-Fluoro-phenyl)-6-oxo-1,4,5,6-tetrahydro-pyridine-3-carboxylic acid (3,4-dimethoxy-phenyl)-amide] gave a pKi of 6.04.
Turning to `Cc1cc(Cl)c(CO)cc1NC(=O)C1=CNC(=O)C[C@H]1c1ccc(F)cc1` [Compound 104, (S)-4-(4-Fluoro-phenyl)-6-oxo-1,4,5,6-tetrahydro-pyridine-3-carboxylic acid(4-chloro-5-hydroxymethyl-2-methyl-phenyl)-amide], the negative-log Ki (pKi) is recorded as 7.21.
As for `O=C1C[C@H](c2ccc(F)cc2)C(C(=O)Nc2cc(OCCO)c(Cl)cc2Br)=CN1` [Compound 75, (R)-4-(4-Fluoro-phenyl)-6-oxo-1,4,5,6-tetrahydro-pyridine-3-carboxylic acid[2-bromo-4-chloro-5-(2-hydroxy-ethoxy)-phenyl]-amide], the pKi is reported as 6.245.
As for `O=C1C[C@@H](c2ccc(F)cc2)C(C(=O)NCc2ccccc2Cl)=CN1` [Compound 97, (S)-4-(4-Fluoro-phenyl)-6-oxo-1,4,5,6-tetrahydro-pyridine-3-carboxylic acid 2-chloro-benzylamide], the figure is 6.16; as for `COc1cc(Br)c(NC(=O)C2=CNC(=O)C[C@H]2c2ccc(F)cc2)cc1OC` [Compound 40, (S)-4-(4-Fluoro-phenyl)-6-oxo-1,4,5,6-tetrahydro-pyridine-3-carboxylic acid(2-bromo-4,5-dimethoxy-phenyl)-amide], 7.895; as for `Cc1ccc(NC(=O)C2=CNC(=O)C[C@H]2c2cccc(F)c2)cc1C(C)O` (stereo partly drawn) [Compound 120, (S)-4-(3-Fluoro-phenyl)-6-oxo-1,4,5,6-tetrahydro-pyridine-3-carboxylic acid[3-(1-hydroxy-ethyl)-4-methyl-phenyl]-amide], 6.635.
For `Cc1cc(C)cc(NC(=O)C2=CNC(=O)CC2c2ccc(F)cc2)c1` (centres unmarked) [Compound 14, 4-(4-Fluoro-phenyl)-6-oxo-1,4,5,6-tetrahydro-pyridine-3-carboxylic acid(3,5-dimethyl-phenyl)-amide] the value was 6.535; for `Cc1cc(CCO)ccc1NC(=O)C1=CNC(=O)C[C@H]1c1ccc(F)cc1` [Compound 105, (S)-4-(4-Fluoro-phenyl)-6-oxo-1,4,5,6-tetrahydro-pyridine-3-carboxylic acid[4-(2-hydroxy-ethyl)-2-methyl-phenyl]-amide], 6.77.
For `COc1cc(C)c(NC(=O)C2=C(C)NC(=O)CC2c2ccc(C(F)(F)F)cc2)cc1OC` (centres unmarked) [Compound 127, 2-Methyl-6-oxo-4-(4-trifluoromethyl-phenyl)-1,4,5,6-tetrahydro-pyridine-3-carboxylic acid(4,5-dimethoxy-2-methyl-phenyl)-amide] the value was 5.055; for `Cc1cccc(NC(=O)C2=CNC(=O)C[C@H]2c2ccc(F)cc2)c1C` [Compound 58, (S)-4-(4-Fluoro-phenyl)-6-oxo-1,4,5,6-tetrahydro-pyridine-3-carboxylic acid (2,3-dimethyl-phenyl)-amide], 6.785; for `COc1cc(C)c(NC(=O)C2=CN(C)C(=O)C(C)C2c2ccc(F)cc2)cc1OC` (centres unmarked) [Compound 91, 4-(4-Fluoro-phenyl)-1,5-dimethyl-6-oxo-1,4,5,6-tetrahydro-pyridine-3-carboxylic acid(4,5-dimethoxy-2-methyl-phenyl)-amide], 5.65.
Molecule `COc1cc(NC(=O)C2=CNC(=O)C[C@H]2c2ccc(F)cc2)c(Br)cc1F` [Compound 109, (S)-4-(4-Fluoro-phenyl)-6-oxo-1,4,5,6-tetrahydro-pyridine-3-carboxylic acid(2-bromo-4-fluoro-5-methoxy-phenyl)-amide] gave a pKi of 7.15.
As for `Cc1ccc(C(C)O)cc1NC(=O)C1=CNC(=O)C[C@H]1c1ccc(F)cc1` (stereo partly drawn) [Compound 80, (S)-4-(4-Fluoro-phenyl)-6-oxo-1,4,5,6-tetrahydro-pyridine-3-carboxylic acid[5-(1-hydroxy-ethyl)-2-methyl-phenyl]-amide], the figure is 7.59.
The molecule `Cc1cc(Cl)c(OCCO)cc1NC(=O)C1=CNC(=O)CC1c1ccc(F)cc1` (centres unmarked) [Compound 61, 4-(4-Fluoro-phenyl)-6-oxo-1,4,5,6-tetrahydro-pyridine-3-carboxylic acid [4-chloro-5-(2-hydroxy-ethoxy)-2-methyl-phenyl]-amide] displayed a pKi of 7.755. This pKi and that of the molecule before are within 0.2 log units of each other.
Take `COc1cc(C)c(NC(=O)C2=CNC(=O)C[C@H]2c2ccc(Cl)cc2)cc1OC` [Compound 131, (S)-4-(4-Chloro-phenyl)-6-oxo-1,4,5,6-tetrahydro-pyridine-3-carboxylic acid (4,5-dimethoxy-2-methyl-phenyl)-amide]: the negative-log Ki (pKi) was 6.165.
`CNC(=O)COc1cc(NC(=O)C2=CNC(=O)C[C@H]2c2ccc(F)cc2)c(C)cc1Cl` [Compound 134, (S)-4-(4-Fluoro-phenyl)-6-oxo-1,4,5,6-tetrahydro-pyridine-3-carboxylic acid(4-chloro-2-methyl-5-methylcarbamoylmethoxy-phenyl)-amide] yielded a negative logarithm of the Ki (pKi) of 6.24. The pKi values of the last two molecules are within 0.2 log units of each other.
For `O=C1CC(c2cccc(F)c2)C(C(=O)Nc2c(F)cc(F)cc2Cl)=CN1` (centres unmarked) [Compound 28, 4-(3-Fluoro-phenyl)-6-oxo-1,4,5,6-tetrahydro-pyridine-3-carboxylic acid(2-chloro-4,6-difluoro-phenyl)-amide], the negative logarithm of the Ki (pKi) was determined as 5.215.
As to `O=C1C[C@@H](c2ccc(F)cc2)C(C(=O)Nc2cc(OCCO)c(Cl)cc2Br)=CN1` [Compound 76, (S)-4-(4-Fluoro-phenyl)-6-oxo-1,4,5,6-tetrahydro-pyridine-3-carboxylic acid[2-bromo-4-chloro-5-(2-hydroxy-ethoxy)-phenyl]-amide], the pKi amounted to 7.063.
Take `Cc1cc(Cl)c(OCC(O)CO)cc1NC(=O)C1=CNC(=O)C[C@H]1c1cccc(F)c1` (stereo partly drawn) [Compound 81, (S)-4-(3-Fluoro-phenyl)-6-oxo-1,4,5,6-tetrahydro-pyridine-3-carboxylic acid[4-chloro-5-(2,3-dihydroxy-propoxy)-2-methyl-phenyl]-amide]: the negative logarithm of the Ki (pKi) is reported as 5.76.
`CCOC(=O)Cc1ccc(C)c(NC(=O)C2=CNC(=O)C[C@H]2c2ccc(F)cc2)c1` [Compound 145, (3-{[(S)-4-(4-Fluoro-phenyl)-6-oxo-1,4,5,6-tetrahydro-pyridine-3-carbonyl]-amino}-4-methyl-phenyl)-acetic acid ethyl ester] yielded a negative logarithm of the Ki (pKi) of 6.55.
For `O=C1CC(c2cccc(F)c2)C(C(=O)Nc2cc(O)ccc2Cl)=CN1` (centres unmarked) [Compound 25, 4-(3-Fluoro-phenyl)-6-oxo-1,4,5,6-tetrahydro-pyridine-3-carboxylic acid(2-chloro-5-hydroxy-phenyl)-amide], the pKi came to 5.395.
Take `O=C1CC(c2ccc(F)cc2)C(C(=O)Nc2cc(OCCO)c(Cl)cc2Br)=CN1` (centres unmarked) [Compound 65, 4-(4-Fluoro-phenyl)-6-oxo-1,4,5,6-tetrahydro-pyridine-3-carboxylic acid[2-bromo-4-chloro-5-(2-hydroxy-ethoxy)-phenyl]-amide]: the pKi was 6.7.
`COc1cc(C)c(NC(=O)C2=CNC(=O)CC2c2ccc(F)cc2)cc1OC` (centres unmarked) [Compound 32, 4-(4-Fluoro-phenyl)-6-oxo-1,4,5,6-tetrahydro-pyridine-3-carboxylic acid(4,5-dimethoxy-2-methyl-phenyl)-amide] gave a negative logarithm of the Ki (pKi) of 7.98.
For `Cc1ccc(OC(F)(F)F)cc1NC(=O)C1=CNC(=O)C[C@H]1c1ccc(F)cc1` [Compound 99, (S)-4-(4-Fluoro-phenyl)-6-oxo-1,4,5,6-tetrahydro-pyridine-3-carboxylic acid(2-methyl-5-trifluoromethoxy-phenyl)-amide] the value was 6.755.
For the molecule `COc1cc(Br)c(NC(=O)C2=CN(C)C(=O)C[C@H]2c2ccc(F)cc2)cc1OC` [Compound 44, (S)-4-(4-Fluoro-phenyl)-1-methyl-6-oxo-1,4,5,6-tetrahydro-pyridine-3-carboxylic acid(2-bromo-4,5-dimethoxy-phenyl)-amide], the negative-log Ki (pKi) was found to be 5.875.
